Measurements as given in article PMC11589101, “Profiling the endocrine-disrupting properties of triazines, triazoles, and short-chain PFAS” (Toxicological Sciences, 2024).

Tests used:
H295R cells = experiment: MTT cell viability assay in H295R cells; format: cell-based, human; details: 48 h; for decrease in cell viability at highest exposure concentration: 25 μM; for highest exposure concentration with <10% decrease in cell viability: H295R cells
Protocol: (§1) For the H295R assay, the culturing and exposure of cells were performed according to OECD Test Guideline No. 456 ([OECD 2011]). All experiments were performed using cells in passages 5 to 10. First, the highest noncytotoxic concentration (<10% decrease in viability) was determined for each compound with MTT assays. Next, the levels of 13 steroid hormones were determined in the medium after exposure of the H295R cells to the highest noncytotoxic concentration using LC-MS/MS. These concentrations were tested in triplicate (n = 3) in 3 independent experiments (N = 3), and all 9 samples were measured in LC-MS/MS. […] These dilution series were tested in 3 independent experiments (N = 3), with triplicate exposures in each of these experiments (n = 3). Supernatants of the triplicate exposures per experiment were pooled after the 48 h of exposure and the 3 pooled samples were measured with LC-MS/MS. This was done to keep the number of LC-MS/MS measurements manageable.
(§2) After 48 h of exposure, the supernatant medium from each well was transferred to the wells of a clean 48-well plate, and that plate was stored at −80 °C for later steroid measurement. MTT assays were performed by adding 500 μl of 0.5 mg/ml MTT (3-(4,5-dimethylthiazol-2-yl)-2,5-diphenyltetrazolium bromide; Sigma-Aldrich) solution in medium to each well of the 24-well cell culture plate and incubating for 1 h at 37 °C with 5% CO2. After incubation, the MTT solution was discarded and 500 μl of DMSO was added to each well to lyse the cells and dissolve the formazan crystals. Plates were shaken at 700 rpm for 10 min and absorbance was measured at 560 nm wavelength. Concentrations causing >10% decrease in cell viability were excluded from the hormone analysis, and test compounds were retested at a lower concentration.

[1] = molecular target: T1, human transthyretin (TTR) (Homo sapiens, UniProt P02766); experiment: FITC-T4 TTR-binding assay, initial (original) method; details: for IC10 competing with FITC-T4 for binding to TTR: initial method, 110 nM FITC-T4, 30 nM TTR
Protocol: (§3) All incubations were performed at room temperature.
(§4) Fluorescence enhancement was determined for each well by subtracting its relative fluorescence units (RFU) before TTR addition from its RFUs after TTR addition. The resulting values were normalized to percentages of the vehicle control. A concentration–response curve was fitted through the data using the same model as in the reporter gene assays.
After 15 min of incubation, fluorescence was measured and fluorescence enhancement was calculated by subtracting RFU without TTR from RFU with TTR. Further data analysis was similar to the screening assays.

[2] = molecular target: T1, human transthyretin (TTR); experiment: FITC-T4 TTR-binding assay, screening method
Protocol: as §3
In the screening tests, 48 μl of Tris-HCl buffer (pH 8.0) was added to each well of black low-binding 96-well plates. Two microliters of each test compound dissolved in their respective solvent was added to each well and the plate was shaken at 600 rpm for 5 min. […] Fluorescence was measured again to check for possible autofluorescence or quenching by the test compound.
as §4

[3] = test system: steroidogenesis in H295R cells; format: cell-based, human; details: 48 h; for effect on steroid hormone levels compared with vehicle-treated controls / increased levels of 17α-OH-progesterone compared with vehicle-treated controls: highest noncytotoxic exposure concentration; for increased levels of progesterone and 17α-OH-progesterone compared with vehicle-treated controls: H295R
Protocol: as §1, with “All” for “For the H295R assay, the culturing and exposure of cells were performed according to OECD Test Guideline No. 456 ([OECD 2011]). All”
The exposure medium was prepared by diluting stock solutions 1,000× in the cell culture medium to obtain a final concentration of 0.1% of the solvent. Exposure was started by replacing cell culture medium with the exposure medium. […] On a separate quality control plate, cells were exposed to 10 μM forskolin (Sigma-Aldrich) and 1 μM prochloraz (Sigma-Aldrich) to serve as positive control for increased and decreased steroid hormone secretion, respectively. Exposure was started by replacing the culture medium in the cell culture plates with the exposure medium.
as §2, with “wavelength.” for “wavelength. Concentrations causing >10% decrease in cell viability were excluded from the hormone analysis, and test compounds were retested at a lower concentration.”
Hormones were concentrated from supernatants by solid phase extraction using Bond Elut Plexa cartridges, 30 mg sorbent, 1.8 ml (Agilent Technologies, Santa Clara, CA, United States). The cartridges were conditioned with 1 ml of 0.5% formic acid in methanol, and subsequent addition of 1 ml of 0.5% formic acid in water. A mix of 100 μl of H295R medium sample in 1 ml of 2% formic acid in water and 50 μl of isotopically labeled internal standards mix (Table S1) was loaded on the cartridges. These were then washed with 1 ml of water followed by 1 ml of water–methanol mixture (70:30, v/v). Cartridges were dried by vacuum and the hormones were eluted with 700 μl of methanol into 96-well-deep well polypropylene plates. Eluates were evaporated to dryness during approximately 2 h in a refrigerated CentriVap vacuum concentrator and reconstituted in 150 μl of water–methanol mixture (1:1, v/v). Additionally, a serial 12-point dilution series of a mix of native steroid hormones was prepared to fit a calibration curve in order to quantify steroid concentrations.
The steroid hormones were separated prior to MS measurements on a Kinetex C18 LC Column (2.6 μm, 100 × 2.1 mm; Phenomenex, CA, United States) coupled to an Exion LC system (SCIEX, Framingham, MA, United States). The mobile phase consisted of 0.2 mM NH4F in water and pure methanol and was delivered at a flow rate of 0.6 ml/min in a gradient elution mode. The injection volume was 10 μl.
The LC-MS/MS raw data were processed using AB Sciex OS Analyst version 1.6.2 (SCIEX, Framingham, MA, United States) to calculate fold changes by dividing the measured hormone concentrations by the hormone concentrations in the vehicle controls. The fold changes were used to fit a concentration–response curve in GraphPad Prism using the same model as in the reporter gene assays, and the ECIR1.5 was estimated for each compound.

VM7Luc4E2 cells = experiment: Resazurine cell viability assay in VM7Luc4E2 cells; format: cell-based, human; details: 24 h
[4] = test system: AR-Ecoscreen-GR-KO M1 cells; experiment: Resazurine cell viability assay in AR-Ecoscreen-GR-KO M1 cells; details: 24 h
Protocol: The cell culture medium was discarded and replaced with 100 μl of fresh assay medium. […] Exposure conditions (24 h; 37 °C; 5% CO2), resazurine assay, and luciferase measurements were similar to described for the VM7Luc4E2 cells.

GH3.TRE cells = experiment: Resazurine cell viability assay in GH3.TRE cells
Protocol: Exposure medium was added to the cells immediately after seeding. […] Exposure conditions, resazurine assay, and luciferase measurements were similar as described for the VM7Luc4E2 cells.

[5] = test system: thyroid hormone receptor (TR); experiment: TR-Luc reporter gene assay, antagonism (coexposure with 110 pM T3); format: cell-based; details: for TR antagonism % max combined: coexposure with 110 pM T3; for IC50 / TR antagonism IC10: GH3.TRE cells, coexposed with 110 pM T3, 24 h

| Structure (SMILES) | effect on steroid hormone levels compared with vehicle-treated controls [3] | cytotoxicity in the resazurine assay ([4]; 100 μM) | cytotoxicity (GH3.TRE cells; 100 μM) | TR antagonism % max combined ([5]; 0.3 uM) [%] | TR antagonism % max combined ([5]; 1 uM) [%] | TR antagonism % max combined ([5]; 3 uM) [%] | TR antagonism % max combined ([5]; 10 uM) [%] | IC50 [5] [µM] | TR antagonism IC10 [5] [µM] | cytotoxicity (GH3.TRE cells; rat, 24 h, 100 μM) | increased levels of 17α-OH-progesterone compared with vehicle-treated controls [3] | highest exposure concentration with <10% decrease in cell viability (H295R cells) [µM] | increased levels of progesterone and 17α-OH-progesterone compared with vehicle-treated controls [3] | also measured |
| --- | --- | --- | --- | --- | --- | --- | --- | --- | --- | --- | --- | --- | --- | --- |
| NC(Cn1cncn1)C(=O)O (stereo not drawn) [Triazole alanine] | – | – | – | – | – | – | – | – | – | – | – | – | – | decrease in cell viability at highest exposure concentration (H295R cells): ≤ 10% |
| Nc1nc(N)[nH]c(=O)n1 [Ammeline] | – | – | – | – | – | – | – | – | – | – | – | – | – | decrease in cell viability at highest exposure concentration (H295R cells): ≤ 10% |
| CC(C)(C)C(O)C(Oc1ccc(-c2ccccc2)cc1)n1cncn1 (stereo not drawn) [Bitertanol] | decreased levels of androgens | significant cytotoxicity | More than 10% | – | – | – | – | – | – | – | – | – | – | IC50 [1]: 62.7 µM; % FITCT4 bound to TTR ([1]; 0.1 uM): 93.4196%; % FITCT4 bound to TTR ([1]; 0.3 uM): 88.4453%; % FITCT4 bound to TTR ([1]; 1 uM): 84.7037%; % FITCT4 bound to TTR ([1]; 3 uM): 79.29%; % FITCT4 bound to TTR ([1]; 10 uM): 64.391%; % FITCT4 bound to TTR ([1]; 30 uM): 52.4704%; % FITCT4 bound to TTR ([1]; 100 uM): 49.6904%; IC10 competing with FITC-T4 for binding to TTR [1]: 0.22 µM; IC50 [2]: 20.5 µM; decrease in viability (VM7Luc4E2 cells; 100 μM): more than 10% |
| CC(C)(C)C(O)C(Oc1ccc(Cl)cc1)n1cncn1 (stereo not drawn) [Triadimenol] | decreased estrogen and corticosteroid levels | – | – | 102.48 | 98.41 | 105.58 | 76.69 | 21.3 | 6.3 | More than 10% | – | – | – | TR antagonism % max combined ([5]; 30 uM): 36.13% |
| CC1COC(Cn2cncn2)(c2ccc(Oc3ccc(Cl)cc3)cc2Cl)O1 (stereo not drawn) [Difenoconazole] | no effect on androgen levels, but showed decreased levels of corticosteroids | – | – | 100.42 | 84.26 | 56.28 | 27.83 | 4.1 | 0.64 | – | more than 8 fold | 3 | – | IC50 [1]: 38.5 µM; % FITCT4 bound to TTR ([1]; 0.1 uM): 94.3698%; % FITCT4 bound to TTR ([1]; 0.3 uM): 86.9998%; % FITCT4 bound to TTR ([1]; 1 uM): 84.4625%; % FITCT4 bound to TTR ([1]; 3 uM): 79.4508%; % FITCT4 bound to TTR ([1]; 10 uM): 60.3391%; % FITCT4 bound to TTR ([1]; 30 uM): 47.2598%; % FITCT4 bound to TTR ([1]; 100 uM): 44.9874%; IC10 competing with FITC-T4 for binding to TTR [1]: 0.23 µM; IC50 [2]: 22 µM; decrease in viability (VM7Luc4E2 cells; 30 and 100 μM): more than 10%; cytotoxicity in the resazurine assay ([4]; 30 and 100 μM): significant cytotoxicity; cytotoxicity (GH3.TRE cells; 30 and 100 μM): More than 10% |
| CC(C1CC1)C(O)(Cn1cncn1)c1ccc(Cl)cc1 (stereo not drawn) [Cyproconazole] | increased levels of progesterone and decreased levels of androgens, estrogens, and corticosteroids | – | – | – | – | – | – | – | – | More than 10% | – | – | up to 3.5 fold | – |
| CCCC1COC(Cn2cncn2)(c2ccc(Cl)cc2Cl)O1 (stereo not drawn) [Propiconazole] | no effect on androgen levels, but showed decreased levels of corticosteroids | significant cytotoxicity | More than 10% | 96.03 | 99.85 | 100.91 | 76.92 | 20.1 | 6.1 | – | more than 8 fold | – | – | TR antagonism % max combined ([5]; 30 uM): 33.08% |
| CC(C)(C)C(O)(CCc1ccc(Cl)cc1)Cn1cncn1 (stereo not drawn) [Tebuconazole] | increased levels of progesterone and decreased levels of androgens, estrogens, and corticosteroids | significant cytotoxicity | More than 10% | – | – | – | – | – | – | – | – | 30 | up to 3.5 fold | – |
| N#CC(CCc1ccc(Cl)cc1)(Cn1cncn1)c1ccccc1 (stereo not drawn) [Fenbuconazole] | decreased levels of androgens, estrogens, and corticosteroids | significant cytotoxicity | – | – | – | – | – | – | – | – | more than 8 fold | – | – | decrease in viability (VM7Luc4E2 cells; 100 μM): more than 10%; cytotoxicity (GH3.TRE cells; 30 and 100 μM): More than 10% |
| FC(F)C(F)(F)OCC(Cn1cncn1)c1ccc(Cl)cc1Cl (stereo not drawn) [Tetraconazole] | increased levels of progesterone and decreased levels of androgens, estrogens, and corticosteroids | – | – | – | – | – | – | – | – | More than 10% | – | 30 | up to 3.5 fold | – |
